Experiments:
[1] = biological target: human MDR1-encoded P-gp (L-MDR1 cells) (Homo sapiens, UniProt P08183); assay: Uptake (intracellular concentration) of digoxin and ginsenosides in L-MDR1 cells; type: in vitro ADME
Summary of the method: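 LLC-PK1 and P-gp-overexpressing L-MDR1 monolayers (vincristine-maintained, ≥200 ohm resistance) pretreated 1.0 h with SLE (2.0 or 10.0 µg/mL) or verapamil 10 µM, then washed. GE added at 100 µg/mL for 2 h; intracellular ginsenosides measured by LC/MS, triplicate.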

[2] = Rat plasma pharmacokinetics after single-dose vehicle/SLE and digoxin or GE; type: in vivo, Sprague-Dawley rats; conditions: rats; for half-life / AUC / Cmax / AUC(0-inf) / MRT inf / Tmax: female, Sprague-Dawley, rat, plasma, po; for half-life / AUC / Cmax / AUC(0-inf) / MRT inf / Tmax / AUCINF_obs / Cl_F_obs: 2 h later digoxin 0.5 mg/kg or GE 120 mg/kg ig; for half-life: read-out: t1/2 (converted); for AUC(0-inf): read-out: AUCINF_obs; for MRT inf: read-out: MRTINF_obs; for Tmax: read-out: Tmax
Experimental: This study was carried out in strict accordance with the recommendations in the Guide for the Care and Use of Laboratory Animals of the National Institutes of Health. The protocol was approved by the Committee on the Ethics of Animal Experiments of the China Pharmaceutical University. All surgery was performed under sodium pentobarbital anesthesia, and all efforts were made to minimize suffering. Female healthy Sprague-Dawley rats (200±20 g) were purchased from the Laboratory Animal Center of Peking University Health Science Center (Beijing, PR China) and kept in an environmentally controlled breeding room for at least 3 days before experimentation. The rats were fed with standard laboratory food and water and fasted overnight but with free access to water before the test. To evaluate the effect of single treatment of SLE on the pharmacokinetics of ginsenosides, 24 rats were divided into four groups (group I ∼ group IV) averagely. […] In group II (control group): the rats received a single dose of vehicle (0.5% CMC-Na), and digoxin (0.5 mg/kg) was also given to the rats by intragastric administration. […] In group IV (control group): the rats received a single dose of vehicle (0.5% CMC-Na), and GE (120 mg/kg) was also given to the rats by gavage. […] Plasma was obtained by centrifugation at 5000 g for 10 min and stored at −20°C before analysis. The plasma / cell samples were extracted using a liquid–liquid extraction technique. To each tube containing 100 µL plasma, 10 µL internal standard (digoxin, 1.0 µg/mL) and 1.0 mL of n-butanol were added. The mixture was then vortex-extracted for 2 min, and centrifuged for 10 min at 10,000 g. […] The plasma concentration-time curves of ginsenosides in rats were obtained by plotting the mean plasma concentrations versus time. Pharmacokinetic parameters were calculated using the WinNonlin 6.3 program (Pharsight Inc., Mountain View, CA). The elimination half-life (t 1/2) value was calculated as 0.693/β, where β is the elimination rate constant calculated from the terminal linear portion of the log plasma concentration-time curve. The total areas under the plasma concentration- time curve from time 0 to the last quantifiable time point (AUC0-t) and from time 0 to infinity (AUC0-∞) were calculated using the log trapezoidal rule. [drawing 3] The maximum plasma concentrations (C max) for ginsenosides were obtained by visual inspection of the plasma concentration-time curve, whereas the initial drug concentration (the extrapolated concentration at zero time) of the drug after intravenous injection was calculated by back-extrapolation of the plasma concentration-time curve to the y-axis.

[3] = Rat plasma pharmacokinetics after 10-day vehicle/SLE and digoxin or GE; type: in vivo, Sprague-Dawley rats; conditions: rats; for AUC(0-inf): read-out: AUCINF_obs; for MRT inf: read-out: MRTINF_obs; for half-life: read-out: t1/2 (converted)
Experimental: This study was carried out in strict accordance with the recommendations in the Guide for the Care and Use of Laboratory Animals of the National Institutes of Health. The protocol was approved by the Committee on the Ethics of Animal Experiments of the China Pharmaceutical University. All surgery was performed under sodium pentobarbital anesthesia, and all efforts were made to minimize suffering. […] The rats were fed with standard laboratory food and water and fasted overnight but with free access to water before the test. To evaluate the effect of long-term treatment with SLE on the pharmacokinetics of ginsenosides, 24 rats were also divided into four groups (group I∼ group IV) with 6 animals each. […] On the 11th day, digoxin was administered intragastrically to rats (group I and group II) at a single dose of 0.5 mg/kg, GE was administered intragastrically to rats (group III and group IV) at a single dose of 120 mg/kg. […] Plasma was obtained by centrifugation at 5000 g for 10 min and stored at −20°C before analysis. The plasma / cell samples were extracted using a liquid–liquid extraction technique. To each tube containing 100 µL plasma, 10 µL internal standard (digoxin, 1.0 µg/mL) and 1.0 mL of n-butanol were added. The mixture was then vortex-extracted for 2 min, and centrifuged for 10 min at 10,000 g. […] The plasma concentration-time curves of ginsenosides in rats were obtained by plotting the mean plasma concentrations versus time. Pharmacokinetic parameters were calculated using the WinNonlin 6.3 program (Pharsight Inc., Mountain View, CA). The elimination half-life (t 1/2) value was calculated as 0.693/β, where β is the elimination rate constant calculated from the terminal linear portion of the log plasma concentration-time curve. The total areas under the plasma concentration- time curve from time 0 to the last quantifiable time point (AUC0-t) and from time 0 to infinity (AUC0-∞) were calculated using the log trapezoidal rule. [drawing 3] The maximum plasma concentrations (C max) for ginsenosides were obtained by visual inspection of the plasma concentration-time curve, whereas the initial drug concentration (the extrapolated concentration at zero time) of the drug after intravenous injection was calculated by back-extrapolation of the plasma concentration-time curve to the y-axis.

[4] = single-dose SLE 500 mg/kg vs vehicle, GE ig
[5] = female, Sprague-Dawley, rat, plasma, po, SLE 500 mg/kg ig once a day for 10 days, day 11 digoxin 0.5 mg/kg or GE 120 mg/kg ig
[6] = female, Sprague-Dawley, rat, plasma, po, control: vehicle once a day for 10 days, day 11 digoxin 0.5 mg/kg or GE 120 mg/kg ig
[7] = SLE 500 mg/kg ig once a day for 10 days, day 11 digoxin 0.5 mg/kg or GE 120 mg/kg ig
[8] = control: vehicle once a day for 10 days, day 11 digoxin 0.5 mg/kg or GE 120 mg/kg ig

human MDR1-encoded P-gp (L-MDR1 cells), sequence (P08183 whole entry): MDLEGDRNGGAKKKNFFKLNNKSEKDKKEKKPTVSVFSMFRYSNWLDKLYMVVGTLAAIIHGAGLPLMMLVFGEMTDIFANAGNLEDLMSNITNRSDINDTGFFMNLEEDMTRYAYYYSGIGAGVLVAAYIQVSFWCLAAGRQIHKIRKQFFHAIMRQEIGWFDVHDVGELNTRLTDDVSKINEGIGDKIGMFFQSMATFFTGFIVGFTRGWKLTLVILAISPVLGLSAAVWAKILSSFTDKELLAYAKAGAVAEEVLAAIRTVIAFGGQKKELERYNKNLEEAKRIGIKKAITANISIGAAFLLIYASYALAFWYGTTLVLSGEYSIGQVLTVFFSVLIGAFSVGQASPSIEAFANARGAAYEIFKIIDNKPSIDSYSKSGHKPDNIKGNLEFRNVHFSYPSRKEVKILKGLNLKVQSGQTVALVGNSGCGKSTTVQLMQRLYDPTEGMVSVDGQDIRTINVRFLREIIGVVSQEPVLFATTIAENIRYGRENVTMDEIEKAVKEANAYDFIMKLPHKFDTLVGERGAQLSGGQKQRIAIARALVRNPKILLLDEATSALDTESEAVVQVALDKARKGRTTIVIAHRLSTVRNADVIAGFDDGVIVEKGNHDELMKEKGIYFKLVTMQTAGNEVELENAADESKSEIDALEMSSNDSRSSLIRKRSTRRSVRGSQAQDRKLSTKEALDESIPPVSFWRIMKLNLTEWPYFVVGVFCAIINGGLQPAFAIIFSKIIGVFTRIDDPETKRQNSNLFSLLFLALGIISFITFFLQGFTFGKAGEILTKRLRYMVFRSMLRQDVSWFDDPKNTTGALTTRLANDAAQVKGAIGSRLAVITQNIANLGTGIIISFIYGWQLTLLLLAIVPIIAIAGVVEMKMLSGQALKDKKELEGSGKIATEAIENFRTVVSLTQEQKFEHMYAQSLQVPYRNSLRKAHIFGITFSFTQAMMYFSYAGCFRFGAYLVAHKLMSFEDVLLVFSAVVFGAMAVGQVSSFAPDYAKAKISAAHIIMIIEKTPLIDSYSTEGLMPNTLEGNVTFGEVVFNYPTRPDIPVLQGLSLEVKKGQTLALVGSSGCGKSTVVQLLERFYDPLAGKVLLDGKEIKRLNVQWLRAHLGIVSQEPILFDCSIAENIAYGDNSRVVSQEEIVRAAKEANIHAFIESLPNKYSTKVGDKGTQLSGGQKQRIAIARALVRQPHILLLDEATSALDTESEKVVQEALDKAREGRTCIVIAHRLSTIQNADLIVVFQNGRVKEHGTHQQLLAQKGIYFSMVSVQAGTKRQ

- Increase of intracellular concentration by SLE ([1]; 2.0 µg/mL SLE): 2.0 fold
- Increase of intracellular concentration by SLE ([1]; 10.0 µg/mL SLE): 3.7 fold
- half-life ([2]; control: single vehicle (0.5% sodium CMC)): 19.4 ± 2.87 h
- AUC ([2]; control: single vehicle): 10200 ± 1710 ng·h/mL
- Cmax ([2]; control: single vehicle): 330 ± 70.9 ng/mL
- AUC(0-inf) ([2]; control: single vehicle): 10600 ± 1730 ng·h/mL
- MRT inf ([2]; control: single vehicle): 27.9 ± 4.2 h
- Tmax ([2]; control: single vehicle): 7 ± 2 h
- AUC ([2]; single SLE 500 mg/kg ig): 22300 ± 5270 ng·h/mL
- Cmax ([2]; single SLE 500 mg/kg ig): 541 ± 45 ng/mL
- AUC(0-inf) ([2]; single SLE 500 mg/kg ig): 23200 ± 5570 ng·h/mL
- MRT inf ([2]; single SLE 500 mg/kg ig): 25.2 ± 3.63 h
- Tmax ([2]; single SLE 500 mg/kg ig): 9.5 ± 3 h
- half-life ([2]; single SLE 500 mg/kg ig): 19 ± 3.84 h
- AUCINF_obs ([2]; control: single vehicle): 10551 ± 1728 ng·h/mL
- Cl_F_obs ([2]; control: single vehicle): 0.012 ± 0.003 L/h
- AUCINF_obs ([2]; single SLE 500 mg/kg ig): 23198 ± 5566 ng·h/mL
- Cl_F_obs ([2]; single SLE 500 mg/kg ig): 0.004 ± 0.001 L/h
- Effect of SLE treatment on Cmax [2, 4]: significantly enhanced
- Increase of AUC (AUC0-∞) by coadministration of SLE [2, 4]: 2.18 fold
- AUC [3, 5]: 21300 ± 6520 ng·h/mL
- Cmax [3, 5]: 586 ± 95.2 ng/mL
- AUC(0-inf) [3, 5]: 16600 ± 3510 ng·h/mL
- MRT inf [3, 5]: 26.5 ± 6.58 h
- Tmax ([3]; female, Sprague-Dawley, rat, plasma, po, SLE 500 mg/kg ig once a day for 10 days, day 11 digoxin 0.5 mg/kg or GE 120 mg/kg ig, read-out: Tmax): 10 ± 2.83 h
- half-life [3, 5]: 24.3 ± 8.42 h
- AUC [3, 6]: 15900 ± 3310 ng·h/mL
- Cmax [3, 6]: 512 ± 77.8 ng/mL
- AUC(0-inf) [3, 6]: 22600 ± 6120 ng·h/mL
- MRT inf [3, 6]: 29.5 ± 2.61 h
- half-life [3, 6]: 20.1 ± 3.66 h
- AUCINF_obs [3, 7]: 22557 ± 6121 ng·h/mL
- Cl_F_obs [3, 7]: 0.0047 ± 0.0011 L/h
- Increase of AUC (AUC0-∞) by 10 continuous days administration of SLE ([3]; SLE 500 mg/kg x 10 days vs vehicle, GE ig on day 11): 1.33 fold
- AUCINF_obs [3, 8]: 16600 ± 3511 ng·h/mL
- Cl_F_obs [3, 8]: 0.0062 ± 0.0013 L/h
Structure (SMILES): CC(C)=CCC[C@](C)(O[C@@H]1O[C@H](CO[C@@H]2OC[C@H](O)[C@H](O)[C@H]2O)[C@@H](O)[C@H](O)[C@H]1O)[C@H]1CC[C@]2(C)[C@@H]1[C@H](O)C[C@@H]1[C@@]3(C)CC[C@H](O[C@@H]4O[C@H](CO)[C@@H](O)[C@H](O)[C@H]4O[C@@H]4O[C@H](CO)[C@@H](O)[C@H](O)[C@H]4O)C(C)(C)[C@@H]3CC[C@]12C [Rb2, ginsenoside Rb2]
